Results published in patent US7138411B2, “Substituted benzopyran derivatives for the treatment of inflammation” (G.D. Searle & Co., priority 1997, dated 2006).

What was measured:
carrageenan foot edema = assay: Rat carrageenan foot pad edema test; assay type: in vivo, Male Sprague-Dawley rats; parameters: inhibition in vivo: dose or concentration left out as unconfirmed; settings: po, 3 h, dosed orally, foot volume three hours after carrageenan, read-out: RAT PAW EDEMA % Inhibition; for inhibition in vivo at 10 mg/kg: @ 10 mpk (values marked *)
Experimental: Rat Carrageenan Foot Pad Edema Test
Male Sprague-Dawley rats were selected in each group so that the average body weight was as close as possible. Rats were fasted with free access to water for over sixteen hours prior to the test. The rats were dosed orally (1 mL) with compounds suspended in vehicle containing 0.5% methylcellulose and 0.025% surfactant, or with vehicle alone. One hour later a subplantar injection of 0.1 mL of 1% solution of carrageenan/sterile 0.9% saline was administered and the volume of the injected foot was measured with a displacement plethysmometer connected to a pressure transducer with a digital indicator. Three hours after the injection of the carrageenan, the volume of the foot was again measured. The average foot swelling in a group of drug-treated animals was compared with that of a group of placebo-treated animals and the percentage inhibition of edema was determined (Otterness and Bliven, Laboratory Models for Testing NSAIDs, in Non-steroidal Anti-Inflammatory Drugs, (J. Lombardino, ed. 1985)).

Analgesia (Table I) = assay type: in vivo; parameters: inhibition in vivo: dose or concentration left out as unconfirmed; settings: read-out: ANALGESIA % Inhibition; for inhibition in vivo at 10 mg/kg: @ 10 mpk (values marked *)
COX-2 [1] = target: T1, COX-2 (UniProt P35354); assay: Fast assay for COX-2 activity (PGE2 ELISA); assay type: biochemical, human or murine; settings: fast assay: 10 min pre-incubation at 25° C., reaction stopped after two minutes, pH 7.5
T1 sequence (P35354 1-604): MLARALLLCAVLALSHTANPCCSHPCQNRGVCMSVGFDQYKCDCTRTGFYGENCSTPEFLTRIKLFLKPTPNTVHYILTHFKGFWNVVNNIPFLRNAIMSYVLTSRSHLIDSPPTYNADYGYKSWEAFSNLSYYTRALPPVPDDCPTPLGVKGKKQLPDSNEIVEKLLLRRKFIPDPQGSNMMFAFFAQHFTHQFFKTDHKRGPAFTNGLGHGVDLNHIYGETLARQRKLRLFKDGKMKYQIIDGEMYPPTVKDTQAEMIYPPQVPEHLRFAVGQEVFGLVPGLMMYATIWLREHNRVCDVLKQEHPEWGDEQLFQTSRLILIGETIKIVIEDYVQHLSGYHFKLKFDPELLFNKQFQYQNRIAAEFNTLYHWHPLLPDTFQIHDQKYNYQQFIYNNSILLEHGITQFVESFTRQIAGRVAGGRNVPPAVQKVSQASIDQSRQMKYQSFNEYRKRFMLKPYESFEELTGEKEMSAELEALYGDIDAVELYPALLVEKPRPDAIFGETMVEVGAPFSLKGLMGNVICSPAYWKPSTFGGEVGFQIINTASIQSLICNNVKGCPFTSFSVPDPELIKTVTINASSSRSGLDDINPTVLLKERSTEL

COX-1 = COX-1 (UniProt P23219); assay: Assay for COX-1 activity (PGE2 ELISA); settings: read-out: COX-1 IC50; 10–20 minutes pre-incubation, reaction stopped after ten minutes, pH 8.0
COX-2 [2] = target: T1, COX-2; assay: Assay for COX-2 activity (PGE2 ELISA); settings: read-out: COX-2 IC50; 10–20 minutes pre-incubation, reaction stopped after ten minutes, pH 8.0

SMILES	IC50 (COX-2 [1])	IC50 (COX-1)	melting point	IC50 (COX-2 [2])	inhibition in vivo (carrageenan foot edema)	inhibition in vivo (Analgesia (Table I))	inhibition in vivo at 10 mg/kg (carrageenan foot edema)	inhibition in vivo at 10 mg/kg (Analgesia (Table I))
O=C(O)C1=Cc2cc(Cl)ccc2OC1C(F)(F)F (stereo not shown) [Example 1, 6-Chloro-2-trifluoromethyl-2H-1-benzopyran-3-carboxylic acid]	300 nM	–	–	–	57%	58%	–	–
CC(C)(C)c1cc2c(cc1Cl)C=C(C(=O)O)C(C(F)(F)F)O2 (stereo not shown) [Example 8, 6-Chloro-7-(1,1-dimethylethyl)-2-trifluoromethyl-2H-1-benzopyran-3-carboxylic acid]	–	–	–	–	43%	36%	–	–
CC(C)(C)c1ccc2c(c1)OC(C(F)(F)F)C(C(=O)O)=C2 (stereo not shown) [Example 12, 7-(1,1-Dimethylethyl)-2-trifluoromethyl-2H-1-benzopyran-3-carboxylic acid]	7000 nM	–	–	–	30%	37%	–	–
O=C(O)C1=Cc2cc(OC(F)(F)F)ccc2OC1C(F)(F)F (stereo not shown) [Example 16, 6-Trifluoromethoxy-2-trifluoromethyl-2H-1-benzopyran-3-carboxylic acid]	–	51000 nM	–	–	48%	34%	–	–
O=C(O)C1=Cc2cc(I)ccc2OC1C(F)(F)F (stereo not shown) [Example 24, 6-Iodo-2-trifluoromethyl-2H-1-benzopyran-3-carboxylic acid]	–	–	168 to 170 °C	–	29%	25%	–	–
O=C(O)C1=Cc2cc(Cl)c(Cl)cc2OC1C(F)(F)F (stereo not shown) [Example 31, 6,7-Dichloro-2-trifluoromethyl-2H-1-benzopyran-3-carboxylic acid]	< 100 nM	–	–	–	–	–	39%	37%
O=C(O)C1=Cc2cc(Cl)cc(Cl)c2OC1C(F)(F)F (stereo not shown) [Example 32, 6,8-Dichloro-2-trifluoromethyl-2H-1-benzopyran-3-carboxylic acid]	–	–	–	–	–	–	59%	73%
Cc1cc(Cl)cc2c1OC(C(F)(F)F)C(C(=O)O)=C2 (stereo not shown) [Example 38, 6-Chloro-8-methyl-2-trifluoromethyl-2H-1-benzopyran-3-carboxylic acid]	–	57000 nM	–	–	47%	55%	–	–
Cc1cc(Cl)c2c(c1)C=C(C(=O)O)C(C(F)(F)F)O2 (stereo not shown) [Example 39, 8-Chloro-6-methyl-2-trifluoromethyl-2H-1-benzopyran-3-carboxylic acid]	–	> 100000 nM	–	–	18%	8%	–	–
O=C(O)C1=Cc2cc(Cl)cc(F)c2OC1C(F)(F)F (stereo not shown) [Example 46, 6-Chloro-8-fluoro-2-trifluoromethyl-2H-1-benzopyran-3-carboxylic acid]	200 nM	43000 nM	190.8 to 193 °C	74000 nM	59%	67%	–	–
O=C(O)C1=Cc2cc(Cl)ccc2SC1C(F)(F)F (stereo not shown) [Example 65, 6-Chloro-2-trifluoromethyl-2H-1-benzothiopyran-3-carboxylic acid]	< 100 nM	–	188.8 to 198.7 °C	–	43%	32%	–	–
O=C(O)C1=Cc2cc(Cl)ccc2NC1C(F)(F)F (stereo not shown) [Example 157, 6-Chloro-1,2-dihydro-2-(trifluoromethyl)-3-quinolinecarboxylic acid]	–	–	–	–	–	–	44%	36%
O=C(O)C1=Cc2cc(Cl)cc(Cl)c2NC1C(F)(F)F (stereo not shown) [Example 158, 6,8-Dichloro-1,2-dihydro-2-(trifluoromethyl)-3-quinolinecarboxylic acid]	–	–	–	–	–	–	45%	55%
O=C(O)C1=Cc2cc(Br)ccc2NC1C(F)(F)F (stereo not shown) [Example 161, 6-Bromo-1,2-dihydro-2-(trifluoromethyl)-3-quinolinecarboxylic acid]	–	–	–	–	53%	56%	–	–
O=C(O)C1=Cc2cc(Cl)ccc2N[C@@H]1C(F)(F)F [Example 172, (S)-6-chloro-1,2-dihydro-2-(trifluoromethyl)-3-quinolinecarboxylic acid]	–	–	–	–	57%	67%	–	–

Continued, in another order:

IC50 (COX-2 [1])	IC50 (COX-1)	melting point	IC50 (COX-2 [2])	SMILES	inhibition in vivo (carrageenan foot edema)	inhibition in vivo (Analgesia (Table I))	inhibition in vivo at 10 mg/kg (carrageenan foot edema)	inhibition in vivo at 10 mg/kg (Analgesia (Table I))
–	–	185.1 to 186.1 °C	–	N#Cc1ccc2c(c1)C=C(C(=O)O)C(C(F)(F)F)O2 (stereo not shown) [Example 79, 6–Cyano-2-(trifluoromethyl)-2H-1-benzopyran-3-carboxylic acid]	45%	53%	–	–
< 100 nM	1600 nM	–	< 100 nM	O=C(O)C1=Cc2cc(C(F)F)ccc2OC1C(F)(F)F (stereo not shown) [Example 81, 6-(Difluoromethyl)-2-(trifluoromethyl)-2H-1-benzopyran-3-carboxylic acid]	36%	44%	–	–
< 100 nM	1400 nM	–	< 100 nM	O=C(O)C1=Cc2c(cc(Cl)c(Cl)c2Cl)OC1C(F)(F)F (stereo not shown) [Example 83, 5,6,7-Trichloro-2-(trifluoromethyl)-2H-1-benzopyran-3-carboxylic acid]	56%	65%	–	–
–	2800 nM	–	< 100 nM	O=C(O)C1=Cc2cc(Cl)c(Cl)c(Cl)c2OC1C(F)(F)F (stereo not shown) [Example 84, 6,7,8-Trichloro-2-(trifluoromethyl)-2H-1-benzopyran-3-carboxylic acid]	44%	24%	–	–
300 nM	100 nM	223.7 to 226 °C	200 nM	O=C(O)C1=Cc2cc(Oc3ccc(C(F)(F)F)cc3)cc(Cl)c2OC1C(F)(F)F (stereo not shown) [Example 105]	75%	69%	–	–
< 100 nM	< 100 nM	186.2 to 189 °C	< 100 nM	C#Cc1cc(Cl)cc2c1OC(C(F)(F)F)C(C(=O)O)=C2 (stereo not shown) [Example 115, 6-Chloro-8-ethynyl-2-(trifluoromethyl)-2H-1-benzopyran-3-carboxylic acid]	52%	62%	–	–
–	–	198 to 200 °C	–	C#Cc1ccc2c(c1)C=C(C(=O)O)C(C(F)(F)F)O2 (stereo not shown) [Example 139, 6-(Ethynyl)-2-(trifluoromethyl)-2H-1-benzopyran-3-carboxylic acid]	42%	41%	–	–
–	–	208 to 209 °C	–	CN1c2ccc(Cl)cc2C=C(C(=O)O)C1C(F)(F)F (stereo not shown) [Example 165, 6-Chloro-1,2-dihydro-1-methyl-2-(trifluoromethyl)-3-quinolinecarboxylic acid]	–	–	30%	33%
< 100 nM	63800 nM	237.8 to 238.8 °C	100 nM	O=C(O)C1=Cc2cc(Cl)c(Oc3cccnc3)cc2OC1C(F)(F)F (stereo not shown) [Example 201, 6-Chloro-7-[3-pyridinyloxy]-2-(trifluoromethyl)-2H-1-benzopyran-3-carboxylic acid]	–	–	–	–
200 nM	> 100000 nM	174.4 to 176 °C	> 100000 nM	O=C(O)C1=Cc2cc(Cl)c(OCC(F)(F)F)cc2OC1C(F)(F)F (stereo not shown) [Example 209]	–	–	–	–
1700 nM	> 100000 nM	259 to 268 °C	10000 nM	C#Cc1ccc2c(c1)C=C(C(=O)O)C(C(F)(F)F)N2 (stereo not shown) [Example 210, 1,2-Dihydro-6-ethynyl-2-(trifluoromethyl)-3-quinolinecarboxylic acid]	–	–	–	–
1900 nM	3800 nM	218 to 219 °C	2400 nM	O=C(O)C1=Cc2cc(C#Cc3ccccc3)ccc2NC1C(F)(F)F (stereo not shown) [Example 211, 1,2-Dihydro-6-(phenylethynyl)-2-(trifluoromethyl)-3-quinolinecarboxylic acid]	–	–	–	–
